Test results: patent US20210353593A1 (Chinook Therapeutics, Inc., priority 2019, published 2021)
Positions of bridges follow the written chain, without caps; N, C: chain ends. No end group written: not given here.

Tested on: IL-6 production in primary human mesangial cells
Assay: ET-1 induced IL-6 production (ELISA) in primary human renal mesangial cells
Type: cell-based

Substance: ET-1: endothelin 1, used to stimulate primary human mesangial cells (CSCSSLMDKECVYFCHLDIIW; disulfide 1-15, 3-11; ends not checked; UniProt P05305 53-73, looked up)
- increase in IL-6 production by primary human mesangial cells (exposed to ET-1 over 48 hours): ~6 fold
- increase in IL-6 production by primary human mesangial cells (exposed to ET-1 over 72 hours): ~2.2 fold
